Assay results as given in US10676721B2, “Bacteriophages expressing antimicrobial peptides and uses thereof” (priority 2009, dated 2020).
Peptide text beside a SMILES is read from it.

B1: CHAP165 (protein)
chain: AKTQAEINKRLDAYAKGTVDSPYRVKKATSYDPSFGVMEAGAIDADGYYHAQCQDLITDYVLWLTDNKVRTWGNAKDQIKQSYGTGFKIHENKPSTVPKKGWIAVFTSGSYEQWGHIGIVYDGGNTSTFTILEQNWNGYANKKPTKRVDNYYGLTHFIEIPVKA

Columns and labels:
[1] = Toxicity of AMPs (Table 3, method not described); parameters: unit not given here; conditions: two values per AMP
S. aureus = conditions: CHAP165, from ROSS 2009; cited from earlier work
Staph aureus = Staph aureus growth in sterile media isolated 6 hours after M13 infection of EMG2 (FIG. 30); assay type: cell-based, Staphylococcus aureus; conditions: no phage control 1.6
Experimental: The inventors isolated the media in which the antimicrobial agents were released. The inventors next infected a growing mid-log culture of EMG2 with the different wild-type and engineered M13 phage. At 6 hours post infection, the EMG2 cells were centrifuged at 13,000 g and filtered through a 0.2 um membrane to collect sterile media with the released AmP and enzyme. The media was replenished in nutrients by adding 5× concentrated LB solution. Mid-log Staph bacteria where then inoculated in the media at a concentration of 10^5 CFU/ml.
For example, the “no phage” or the “m13 mp 18” staph culture reach an OD of 0.8 within 4 hours whereas the “M13.pTRC.Omp.PonW3” media containing PonW3 (SEQ ID NO: 40) causes a growth delay by another 4 hours, the culture reaches the same OD of 0.8 only after 8 hours of growth. Finally, release of CHAP165 in the surrounding media due to phage reengineering limited staph growth to an OD level of 0.8 while compared to 1.6 for the no phage control and 1.2 for the wild M13mp18.

Staphylococcus aureus = experiment: Co-culture of E. coli with Staphylococcus aureus; assay type: cell-based
[2] = tested on: antibiotic-resistant staphylococci; conditions: cited from earlier work
[3] = tested on: E. coli strain that expresses capsular polysaccharide K; experiment: Mixed culture of E. coli host strain and E. coli strain expressing capsular polysaccharide K; assay type: cell-based, Escherichia coli
Excerpt: The expression of the genomic payload of lytic peptides and proteins increases the utility of the engineered bacteriophage to treat heterologous infections.

Molecule	Toxicity [1]	further results
CC[C@H](C)[C@H](NC(=O)[C@H](CC(C)C)NC(=O)[C@H](C)NC(=O)CNC(=O)[C@H](Cc1c[nH]c2ccccc12)NC(=O)[C@@H](N)Cc1ccccc1)C(=O)N[C@@H](CCCCN)C(=O)NCC(=O)N[C@@H](C)C(=O)N[C@@H](C)C(=O)N[C@@H](CCCCN)C(=O)N[C@@H](CC(C)C)C(=O)N[C@H](C(=O)N1CCC[C@H]1C(=O)N[C@@H](CO)C(=O)N[C@H](C(=O)N[C@H](C(=O)NCC(=O)N[C@@H](CC(C)C)C(=O)N[C@@H](Cc1ccccc1)C(=O)N[C@@H](CCCCN)C(=O)N[C@@H](CCCCN)C(=O)N[C@@H](CCCCN)C(=O)N[C@@H](CCC(N)=O)C(=O)O)C(C)C)C(C)C)[C@@H](C)CC [J6084_H2, Ponericin W5] (H-FWGALIKGAAKLIPSVVGLFKKKQ-OH)	32	
CC[C@H](C)[C@H](NC(=O)[C@H](C)NC(=O)[C@H](CCCCN)NC(=O)CNC(=O)[C@H](C)NC(=O)[C@H](Cc1c[nH]cn1)NC(=O)[C@@H](NC(=O)[C@H](C)NC(=O)CNC(=O)[C@H](CCCCN)NC(=O)[C@@H](NC(=O)[C@H](CC(C)C)NC(=O)[C@H](Cc1c[nH]c2ccccc12)NC(=O)CNC(=O)[C@H](Cc1ccccc1)NC(=O)[C@@H](N)Cc1ccccc1)[C@@H](C)CC)[C@@H](C)CC)C(=O)N[C@@H](Cc1c[nH]cn1)C(=O)NCC(=O)N[C@@H](CC(C)C)C(=O)N[C@H](C(=O)N[C@@H](Cc1c[nH]cn1)C(=O)N[C@@H](CCCNC(=N)N)C(=O)N[C@@H](CCCNC(=N)N)C(=O)N[C@@H](CCCNC(=N)N)C(=O)N[C@@H](Cc1c[nH]cn1)C(=O)O)[C@@H](C)CC [J589_J6] (H-FFGWLIKGAIHAGKAIHGLIHRRRH-OH)	16	
CC[C@H](C)[C@H](NC(=O)[C@H](CCCCN)NC(=O)[C@H](CC(C)C)NC(=O)[C@H](C)NC(=O)[C@H](CO)NC(=O)CNC(=O)[C@H](CC(C)C)NC(=O)[C@@H](N)Cc1c[nH]c2ccccc12)C(=O)NCC(=O)N[C@@H](C)C(=O)N[C@@H](CCCCN)C(=O)N[C@@H](CC(C)C)C(=O)N[C@@H](CC(C)C)C(=O)N1CCC[C@H]1C(=O)N[C@@H](CO)C(=O)N[C@H](C(=O)N[C@H](C(=O)NCC(=O)N[C@@H](CC(C)C)C(=O)N[C@@H](Cc1ccccc1)C(=O)N[C@@H](CCC(N)=O)C(=O)N[C@@H](CCCCN)C(=O)N[C@@H](CCCCN)C(=O)N[C@@H](CCCCN)C(=O)N[C@@H](CCCCN)C(=O)O)C(C)C)C(C)C [J589_J5] (H-WLGSALKIGAKLLPSVVGLFQKKKK-OH)	32	
CC[C@H](C)[C@H](NC(=O)[C@H](C)NC(=O)[C@@H]1CCCN1C(=O)CNC(=O)[C@H](C)NC(=O)[C@H](CCCCN)NC(=O)[C@@H](NC(=O)[C@H](CC(C)C)NC(=O)CNC(=O)[C@H](CC(=O)O)NC(=O)[C@H](CCCNC(=N)N)NC(=O)[C@@H](NC(=O)[C@H](CC(N)=O)NC(=O)[C@H](CCC(N)=O)NC(=O)CNC(=O)[C@@H](NC(=O)[C@H](CCCNC(=N)N)NC(=O)[C@H](CCC(=O)O)NC(=O)[C@@H](NC(=O)[C@H](CCCCN)NC(=O)[C@H](CCCCN)NC(=O)[C@H](Cc1ccccc1)NC(=O)[C@H](Cc1ccccc1)NC(=O)[C@H](CCCCN)NC(=O)[C@H](Cc1c[nH]c2ccccc12)NC(=O)[C@@H](N)CCCNC(=N)N)[C@@H](C)CC)C(C)C)C(C)C)[C@@H](C)CC)C(=O)N[C@@H](CCC(N)=O)C(=O)N[C@H](C(=O)N[C@@H](CC(C)C)C(=O)NCC(=O)N[C@@H](C)C(=O)N[C@@H](C)C(=O)N[C@@H](CCCCN)C(=O)N[C@@H](C)C(=O)N[C@@H](CC(C)C)C(=O)O)C(C)C [J6090_C11] (H-RWKFFKKIERVGQNVRDGLIKAGPAIQVLGAAKAL-OH)	256	
CC(C)C[C@H](NC(=O)[C@H](CC(C)C)NC(=O)[C@H](Cc1ccccc1)NC(=O)[C@H](CC(C)C)NC(=O)[C@H](CC(C)C)NC(=O)[C@@H](N)CC(C)C)C(=O)N[C@@H](CCCCN)C(=O)N[C@@H](CCCCN)C(=O)N[C@@H](CCCNC(=N)N)C(=O)N[C@@H](CCCCN)C(=O)N[C@@H](CCCCN)C(=O)N[C@@H](CCCNC(=N)N)C(=O)N[C@@H](CCCCN)C(=O)N[C@@H](Cc1ccc(O)cc1)C(=O)O [J589_D1] (H-LLLFLLKKRKKRKY-OH)	512	
CC[C@H](C)[C@H](NC(=O)CN)C(=O)N[C@@H](Cc1c[nH]c2ccccc12)C(=O)NCC(=O)N[C@H](C(=O)N[C@@H](CC(C)C)C(=O)N[C@@H](C)C(=O)N[C@@H](CCCCN)C(=O)N[C@H](C(=O)NCC(=O)N[C@H](C(=O)N[C@@H](CCCCN)C(=O)N[C@@H](C)C(=O)N[C@H](C(=O)N1CCC[C@H]1C(=O)N[C@@H](CCCNC(=N)N)C(=O)N[C@H](C(=O)N[C@H](C(=O)N[C@@H](CO)C(=O)N[C@@H](CCSC)C(=O)N[C@@H](CC(C)C)C(=O)N[C@@H](CCCCN)C(=O)N[C@@H](CCCCN)C(=O)N[C@@H](CCCCN)C(=O)N[C@@H](CCCCN)C(=O)N[C@@H](CCC(N)=O)C(=O)O)[C@@H](C)CC)C(C)C)C(C)C)[C@@H](C)CC)[C@@H](C)CC)[C@@H](C)O [J589_K4, Ponericin W3] (H-GIWGTLAKIGIKAVPRVISMLKKKKQ-OH)	64	
CC[C@H](C)[C@H](NC(=O)[C@H](CCCCN)NC(=O)[C@H](CCCCN)NC(=O)[C@H](Cc1ccccc1)NC(=O)[C@H](CC(C)C)NC(=O)[C@H](CCCCN)NC(=O)[C@H](Cc1c[nH]c2ccccc12)NC(=O)[C@@H](N)CCCCN)C(=O)N[C@@H](CC(C)C)C(=O)N[C@@H](CCCCN)C(=O)N[C@@H](Cc1ccccc1)C(=O)N[C@@H](CC(C)C)C(=O)N[C@@H](Cc1c[nH]cn1)C(=O)N[C@@H](CC(C)C)C(=O)N[C@@H](C)C(=O)N[C@@H](CCCCN)C(=O)N[C@@H](CCCCN)C(=O)N[C@@H](Cc1ccccc1)C(=O)O [J6084_F10] (H-KWKLFKKILKFLHLAKKF-OH)	32	
CC[C@H](C)[C@H](NC(=O)[C@H](CCCCN)NC(=O)[C@H](CC(C)C)NC(=O)[C@H](C)NC(=O)[C@H](CO)NC(=O)CNC(=O)[C@H](CC(C)C)NC(=O)[C@@H](N)Cc1c[nH]c2ccccc12)C(=O)NCC(=O)N[C@@H](C)C(=O)N[C@@H](CCCCN)C(=O)N[C@@H](CC(C)C)C(=O)N[C@@H](CC(C)C)C(=O)N1CCC[C@H]1C(=O)N[C@@H](CO)C(=O)N[C@H](C(=O)N[C@H](C(=O)NCC(=O)N[C@@H](CC(C)C)C(=O)N[C@@H](Cc1ccccc1)C(=O)N[C@@H](CCCCN)C(=O)N[C@@H](CCCCN)C(=O)N[C@@H](CCCCN)C(=O)N[C@@H](CCCCN)C(=O)N[C@@H](CCC(N)=O)C(=O)O)C(C)C)C(C)C [J6123_D7, Ponericin W1] (H-WLGSALKIGAKLLPSVVGLFKKKKQ-OH)	64	
CC[C@H](C)[C@H](NC(=O)CNC(=O)[C@H](CCCNC(=N)N)NC(=O)[C@H](Cc1ccccc1)NC(=O)[C@@H](NC(=O)[C@H](Cc1c[nH]cn1)NC(=O)[C@H](Cc1c[nH]cn1)NC(=O)[C@H](Cc1ccccc1)NC(=O)[C@@H](N)Cc1ccccc1)[C@@H](C)CC)C(=O)N[C@H](C(=O)N[C@@H](Cc1c[nH]cn1)C(=O)N[C@H](C(=O)NCC(=O)N[C@@H](CCCCN)C(=O)N[C@H](C(=O)N[C@H](C(=O)N[C@@H](Cc1c[nH]cn1)C(=O)N[C@@H](CCCCN)C(=O)N[C@@H](CC(C)C)C(=O)N[C@H](C(=O)N[C@H](C(=O)NCC(=O)O)[C@@H](C)O)C(C)C)[C@@H](C)CC)[C@@H](C)O)C(C)C)C(C)C [J589_H3] (H-FFHHIFRGIVHVGKTIHKLVTG-OH)	128	
B1		MIC SA (S. aureus): ~0.3 µg/mL; OD level to which staph growth is limited (Staph aureus): 0.8; lysis of the staphylococcal population (Staphylococcus aureus): able to complete lyse; lytic activity compared with the natural LysK enzyme [2]: twice stronger lytic activity; sterilization of the heterogeneous E. coli culture [3]: sterilize the heterogeneous E. coli culture completely; lysis of the E. coli strain that expresses capsular polysaccharide K ([3]; lysK165 expressed from engineered bacteriophage): able to lyse
